From patent US20170002313A1, “COMPOSITIONS AND METHODS OF OBTAINING AND USING ENDODERM AND HEPATOCYTE CELLS” (Genentech Inc., priority 2012, published 2017)

Legend:
[1] = system: human embryonic stem cells (hESC); test: Endoderm differentiation of hESC with small-molecule inhibitors, flow cytometry of endoderm markers; assay type: cell-based
Source text: A variety of cell-type specific markers were used to monitor the differentiation of stem cells into endoderm cells in the flow cytometry, fluorescence imaging, and immunoassay experiments described below. To detect endoderm conversion, hESC-derived cell samples were stained for the expression of SOX17, FoxA2, and CXCR4 proteins. SOX17, FoxA2, and CXCR4 are proteins that are expressed by endoderm cells but not by stem cells. To detect stem cells, cell samples were stained for the expression of OCT4, a protein expressed by stem cells but not by endoderm cells.
Undifferentiated human embryonic stem cells (hES) were maintained at a density of 40,000 cells/cm^2 on qualified matrigel (BD, #354277) in TesR™2 medium ([…]™ Technologies #05860). Cultures were manually passaged twice a week. To prepare for endoderm differentiation, hESC cells were passaged into TesR™2 medium overnight. The following day, the TesR™2 medium was replaced with basal medium (DMEM/F12+Glutamax (Invitrogen, #10565) supplemented with B27 (Invitrogen, #17504-044)). No human embryos were destroyed in the process of obtaining stem cells for these methods. Furthermore, the plurality of stem cells is not obtained by the prior destruction of human embryos.
Unless otherwise noted, basal medium was supplemented with […] human Activin A (Peprotech, #120-14). When indicated, basal medium was also supplemented with an effective amount of, e.g., a growth factor such as […] human Wnt3a (R&D, #5036-WN-010), an isoform-specific P13K inhibitor or an mTOR inhibitor. […]
To prepare the cells for flow cytometry, hESC-derived cells grown under endoderm differentiation conditions were dissociated using Accutase (Innovative Cell technologies, #AT-104). Briefly, the cells were washed once in PBS, incubated with Accutase for 10 minutes at room temperature, pelleted, and washed in cold PBS. The Accutase-dissociated hESC-derived cell samples were stained with anti-CXC4 antibody, anti-SOX17 antibody, or anti-FoxA2 antibody. Additional cell samples were stained with isotype control antibodies (e.g., IgG1 or IgG2).
The cells that were to be stained with anti-CXCR4 antibody were washed once with cold DPBS and then directly stained with mouse anti-human CD184 (CXCR4)-IgG2-PE (BD, #555974) for one hour at 4° C. The cells that were to be stained with anti-SOX17 antibody or anti-FoxA2 antibody were first fixed for 25 minutes at 4° C. in fixation buffer (BD, #554655) and permeabilized for 30 minutes on ice in Perm Buffer III (BD, #554656). Anti-SOX17 staining was performed using a mouse anti-SOX17 IgG1-PE antibody (BD, #561591) at room temperature for 30 minutes. Anti-FoxA2 staining was performed using a mouse anti-human FoxA2 IgG1 (BD, #561589) under the same conditions. A control sample of cells were fixed as described above and stained with either an anti-IgG1-PE antibody (BD, #554680) at room temperature for 30 minutes or an anti-IgG2-PE antibody (BD, #55574) for one hour at 4° C.
The antibody-stained hESC-derived cells were then analyzed via flow cytometry using a BD LSRFortessa™ cell analyzer. […] Approximately 1×10^6 cells were analyzed per sample.

[2] = system: human embryonic stem cells (hESC); test: AlphaLISA of SOX17 and OCT4 in hESC-derived cells; assay type: cell-based
Protocol: To detect OCT4, the cells were washed three times in PBS and lysed with 50 ul AlphaLISA Lysis Buffer (Perkin Elmer, #AL003C). The lysis buffer was added to each cell sample and mixed with the cells five times. The cell samples were then incubated in a plate shaker at room temperature for 15 minutes. 5 μl of the lysate from each sample was then transferred to a 384 well OptiPlate (Perkin Elmer, #6005629). 5 μl of 10 ug/ml anti-rabbit acceptor bead (Perkin Elmer, #AL104M) and […] of 0.2 nM of rabbit anti-OCT4 antibody (Cell Signaling, #2890) was added to each well and incubated for 2 hours at room temperature. Following the incubation, 5 μl of 0.5 nM mouse anti-OCT4 antibody (BD, #611203) and […] of 0.5 nM biotinylated goat anti-mouse antibody (Invitrogen, #B2763) were added to each well and incubated at room temperature for 2 hours. Following the incubation, […] of streptavidin donor beads (Perkin Elmer, #6760002B) were added to each well and incubated for 30 minutes. The OptiPlates were then analyzed using an Envision Multilabel Plate Reader (Perkin Elmer, #2104-0010). All beads and antibodies were diluted as necessary in IAB Buffer (Perkin Elmer, #AL000C)+50 mM NaCl. Four replicate assays were performed.
To detect SOX17, the cells were washed three times in PBS and lysed with 50 ul Roche Complete Lysis Buffer (Roche, #04719956001). The lysis buffer was added to each cell sample and mixed with the cells five times. The cell samples were then incubated in a plate shaker at room temperature for 15 minutes. 5 μl of the lysate from each sample was then transferred to a 384 well OptiPlate (Perkin Elmer, #6005629). 5 μl of 10 ug/ml anti-rabbit acceptor bead (Perkin Elmer, #AL104M) and […] of 1 nM of rabbit anti-SOX17 antibody (Sigma, #AV33271) was added to each well and incubated for 2 hours at room temperature. Following the incubation, 5 μl of 0.5 nM mouse anti-SOX antibody (Sigma, #SAB3300093) and […] of 0.5 nM biotinylated goat anti-mouse antibody (Invitrogen, #B2763) were added to each well and incubated at room temperature for 2 hours. Following the incubation, […] of streptavidin donor beads (Perkin Elmer, #6760002B) were added to each well and incubated for 30 minutes. The OptiPlates were then analyzed using an Envision Multilabel Plate Reader (Perkin Elmer, #2104-0010). All beads and antibodies were diluted as necessary in IAB Buffer (Perkin Elmer, #AL000C) Four replicate assays were performed.
After a 3-day treatment, cells were harvested and stained with anti-SOX17 antibody as described above in preparation for AlphaLISA analysis.

hESC-derived cells = test: xCELLigence proliferation and viability time course; assay type: cell-based, human; details: 12 days, no medium change; Activin A + 750 nM Compound A, or Activin A + Wnt3a + 5 μM LY294002
Protocol: The hESC-derived cells grown under each condition were assayed for their proliferation and viability once a day for 12 days with no medium change using Roche's xCELLigence System according to standard protocol.
xCELLigence measured proliferation and viability as a function of impedance signal. High impedance signals indicated cell attachment to the surface of the culture dish, which is associated with increased proliferation. In contrast low impedance signals indicated cells' detachment from the surface of the culture dish, which is associated with cell death. […] The experiments whose results are depicted in FIG. 8 were performed in duplicate. Accordingly, there are two curves for each condition.

[3] = system: hESC-derived endoderm cells; test: CellTiter-Glo Luminescent Cell Viability Assay; assay type: cell-based, human; details: Activin A + 100 nM to 1.5 μM Compound A, 7 days
Source text: In this assay, metabolically active cells in each sample tested were quantified as a function of ATP levels produced by the sample.

mTOR = mTOR (Homo sapiens, UniProt P42345); test: In vitro kinase profile, PI3K alpha_MTOR score; assay type: biochemical
Protocol: (§1) The effect of each compound on the PI3K/AKT/MTOR pathway was evaluated in two ways: via a kinase profile (FIG. 23) and via phospho imaging assays (i.e., immunofluorescence assays using antibodies specific for the phosphorylated form of mTOR or AKT). In vitro kinase profiling provided percent inhibition for numerous targets within the PI3K cell signaling pathway, and cell-based imaging assays were performed to directly visualize the effect of each compound on phosphorylated Akt and phosphorylated mTOR in the cell system used for differentiation.
(§2) In column 2 of Table 6, the PI3K alpha_MTOR score reflects the ability of a compound to inhibit the phosphorylation of PI3K alpha and mTOR, where + indicates minimal inhibition, and +++ indicates maximal inhibition. In column 3 of Table 6, the score indicates the ratio of phosphorylated mTOR (as measured by fluorescence intensity) in cells treated with a compound and the phosphorylated mTOR (as measured by fluorescence intensity) in cells that were not treated with the compound. In column 4 of Table 6, the score indicates the ratio of phosphorylated AKT (as measured by fluorescence intensity) in cells treated with a compound and the phosphorylated AKT (as measured by fluorescence intensity) in cells that were not treated with the compound. A reported effect of AKT inhibitors is an increase in phosphorylated AKT.

Akt = test: In vitro kinase profile; assay type: biochemical
Protocol: as §1

phosphorylated AKT = test: Phospho imaging assay (immunofluorescence); assay type: cell-based, human
Protocol: as §1, §2

phosphorylated mTOR = test: Phospho imaging assay (immunofluorescence); assay type: cell-based, human
Protocol: as §1, §2

[4] = system: human embryonic stem cells (hESC); test: Dose response with Activin A for optimal concentration (SOX17, cell death); assay type: cell-based
Protocol: To facilitate extended characterization, it was necessary to determine the optimal concentration of each of the compounds for use subsequent experiments. The optimal concentration of each compound was determined based on two parameters: highest efficiency of endoderm differentiation and low toxicity. Each compound was tested with Activin A in a dose response manner. The concentration that gave the highest % SOX17 expressing cells at Day 3 without causing more than 30% cell death compared to control was determined for each compound. The yield of differentiation went from 4% to 81% SOX17+ cells at day 3.

PI3K alpha = PI3K alpha (Homo sapiens, UniProt P42336); test: In vitro kinase profile, PI3K alpha_MTOR score; assay type: biochemical
Protocol: as §1, §2

[5] = system: hESC-derived endoderm cells; test: Hepatocyte differentiation of endoderm cells, flow cytometry; assay type: cell-based, human; details: hepatoblast medium in the absence of FGF4 and BMP2
Protocol: After 10-day treatment, the endoderm-derived cells were harvested using TrypLE. Briefly, the cells were washed once in PBS, incubated with TrypLE for 5 minutes at 37° C. The incubated cells were then diluted 10-fold with PBS, pelleted, and prepared for further analysis.
Prior to flow cytometry analysis, the Accutase-dissociated endoderm-derived cell samples were stained with an anti-AFP primary antibody followed by a secondary antibody.
The harvested endoderm-derived cells were washed with cold DPBS. […] The cells were washed three more times in permeabilization/wash buffer prior to flow cytometry analysis.
HepG2 cells, which were derived from a well-differentiated hepatocellular carcinoma, were also stained as a positive control. The cells were analyzed via flow cytometry as described above. Approximately 1.5×10^6 cells were analyzed per sample.
Endoderm cells were treated with different combinations of growth factors and tested for their capability to differentiate into hepatocytes. hESC were differentiated into endoderm cells as described above. […] After 10 days of treatment, the endoderm-derived cells were prepared for flow cytometry and imaging analysis as described above.
An additional control sample was prepared in which endoderm cells obtained by culture with Activin A alone were cultured in hepatoblast medium in the absence of any additional growth factors. […]

[6] = time course, Activin A + 750 nM Compound A, no Wnt3a, day 5
[7] = dose response of Compound A with Activin A
[8] = Activin A + 750 nM inhibitor, no Wnt3a, 3-day treatment

Sequence of PI3K alpha (P42336 whole entry, species assumed): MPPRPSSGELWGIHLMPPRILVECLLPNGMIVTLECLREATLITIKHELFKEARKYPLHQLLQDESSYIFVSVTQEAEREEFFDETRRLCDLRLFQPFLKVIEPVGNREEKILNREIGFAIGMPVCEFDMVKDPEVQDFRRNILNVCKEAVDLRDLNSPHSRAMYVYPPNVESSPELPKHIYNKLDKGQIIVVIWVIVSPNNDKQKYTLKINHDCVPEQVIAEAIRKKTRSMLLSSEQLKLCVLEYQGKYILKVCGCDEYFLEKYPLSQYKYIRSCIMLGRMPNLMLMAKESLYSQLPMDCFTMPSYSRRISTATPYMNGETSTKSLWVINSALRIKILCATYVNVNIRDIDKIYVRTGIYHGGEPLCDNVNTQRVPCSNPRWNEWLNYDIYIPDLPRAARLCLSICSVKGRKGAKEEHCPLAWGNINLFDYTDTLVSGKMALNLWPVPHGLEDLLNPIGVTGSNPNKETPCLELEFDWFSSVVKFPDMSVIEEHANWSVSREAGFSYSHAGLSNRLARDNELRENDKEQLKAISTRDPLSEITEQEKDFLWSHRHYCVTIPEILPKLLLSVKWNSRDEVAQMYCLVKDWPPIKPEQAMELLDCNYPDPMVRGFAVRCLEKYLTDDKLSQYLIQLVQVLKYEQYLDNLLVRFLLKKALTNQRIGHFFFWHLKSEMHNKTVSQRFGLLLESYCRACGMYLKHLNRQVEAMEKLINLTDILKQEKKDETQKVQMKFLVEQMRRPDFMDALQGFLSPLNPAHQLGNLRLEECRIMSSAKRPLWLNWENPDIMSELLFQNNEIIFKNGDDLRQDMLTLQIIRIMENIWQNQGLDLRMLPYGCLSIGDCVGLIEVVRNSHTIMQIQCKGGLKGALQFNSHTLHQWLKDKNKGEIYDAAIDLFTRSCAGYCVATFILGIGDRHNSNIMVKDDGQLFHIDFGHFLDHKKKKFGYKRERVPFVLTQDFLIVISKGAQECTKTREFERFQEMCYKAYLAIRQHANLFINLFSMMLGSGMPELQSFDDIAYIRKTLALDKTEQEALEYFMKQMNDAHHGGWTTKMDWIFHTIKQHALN
Sequence of PI3K alpha (P27986 whole entry partner, species assumed): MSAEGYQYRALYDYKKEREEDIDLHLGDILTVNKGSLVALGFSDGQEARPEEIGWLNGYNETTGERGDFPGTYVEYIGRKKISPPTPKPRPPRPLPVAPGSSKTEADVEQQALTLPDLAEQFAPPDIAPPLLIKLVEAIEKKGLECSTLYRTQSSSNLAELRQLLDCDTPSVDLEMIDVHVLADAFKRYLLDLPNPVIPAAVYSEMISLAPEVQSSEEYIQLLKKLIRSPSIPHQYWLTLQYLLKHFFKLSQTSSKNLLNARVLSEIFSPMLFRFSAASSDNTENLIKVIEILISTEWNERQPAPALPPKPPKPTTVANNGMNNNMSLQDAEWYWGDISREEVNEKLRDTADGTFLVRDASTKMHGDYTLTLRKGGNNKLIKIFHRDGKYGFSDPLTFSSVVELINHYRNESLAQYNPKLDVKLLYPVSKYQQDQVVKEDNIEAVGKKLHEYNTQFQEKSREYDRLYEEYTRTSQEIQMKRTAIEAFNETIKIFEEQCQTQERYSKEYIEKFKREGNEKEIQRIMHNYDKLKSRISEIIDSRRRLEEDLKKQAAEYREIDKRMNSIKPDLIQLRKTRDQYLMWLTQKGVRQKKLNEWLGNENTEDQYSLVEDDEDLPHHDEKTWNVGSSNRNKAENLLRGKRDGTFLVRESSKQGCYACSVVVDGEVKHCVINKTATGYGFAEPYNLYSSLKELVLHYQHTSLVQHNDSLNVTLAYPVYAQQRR

Molecule: CS(=O)(=O)N1CCN(Cc2cc3nc(-c4cccc5[nH]ncc45)nc(N4CCOCC4)c3s2)CC1 [Compound A, 4-[2-(1H-indazol-4-yl)-6-[(4-methylsulfonylpiperazin-1-yl)methyl]thieno[3,2-d]pyrimidin-4-yl]morpholine]
- % of hESC-derived cells expressing SOX17 ([1]; Activin A + Wnt3a + 500 nM inhibitor, 3-day treatment): 93.5-93.9%
- % of hESC-derived cells expressing SOX17 ([1]; dose response, Activin A + 750 nM Compound A, no Wnt3a, 3-day treatment): 84%
- % of hESC-derived cells expressing SOX17 ([1]; isoform-specific PI3K inhibitor + Activin A alone, 3-day treatment): about 77.35%
- % of hESC-derived cells expressing CXCR4 [1, 6]: 82%
- % of hESC-derived cells expressing FoxA2 [1, 6]: 87%
- % of hESC-derived cells expressing SOX17 [1, 6]: 91%
- OCT4 expression (AlphaLISA) [2, 7]: decreases
- SOX17 expression (AlphaLISA) [2, 7]: increases with increasing concentrations of Compound A up to 750 nM
- viability and proliferation (impedance signal) (hESC-derived cells): remain viable and proliferative past day 4
- viability (ATP levels) [3]: greater viability at 7 days

Molecule: CCNC(=O)Nc1ccc2ncc(Nc3ccc(C)cc3)nc2n1 [Compound D1066]
- reduction of phosphorylation of mTOR (FIG. 23) (mTOR): did not show reduction of phosphorylation of mTOR or Akt
- reduction of phosphorylation of Akt (FIG. 23) (Akt): did not show reduction of phosphorylation of mTOR or Akt
- effect on Akt phosphorylation in cell-based imaging assays (phosphorylated AKT): did not exhibit any effects on Akt or mTOR phosphorylation
- effect on mTOR phosphorylation in cell-based imaging assays (phosphorylated mTOR): did not exhibit any effects on Akt or mTOR phosphorylation

Molecule: CO[C@@H]1[C@H](N(C)C(=O)c2ccccc2)C[C@H]2O[C@]1(C)n1c3ccccc3c3c4c(c5c6ccccc6n2c5c31)C(=O)NC4 [PKC412]
- reduction of phosphorylation of mTOR (FIG. 23) (mTOR): potent reduction of phosphorylation
- toxicity [4]: may be toxic

Molecule: COc1ccc(COc2cc3oc(=O)c4cc(C(C)O)ccc4c3cc2OC)cc1 (stereo not drawn) [Palomid 529]
- reduction of phosphorylation of mTOR (FIG. 23) (mTOR): did not show reduction of phosphorylation of mTOR or Akt
- reduction of phosphorylation of Akt (FIG. 23) (Akt): did not show reduction of phosphorylation of mTOR or Akt
- effect on Akt phosphorylation in cell-based imaging assays (phosphorylated AKT): did not exhibit any effects on Akt or mTOR phosphorylation
- effect on mTOR phosphorylation in cell-based imaging assays (phosphorylated mTOR): did not exhibit any effects on Akt or mTOR phosphorylation

Molecule: CO[C@H]1C[C@@H]2CC[C@@H](C)[C@@](O)(O2)C(=O)C(=O)N2CCCC[C@H]2C(=O)O[C@H]([C@H](C)C[C@@H]2CC[C@@H](OCCO)[C@H](OC)C2)CC(=O)[C@H](C)/C=C(\C)[C@@H](O)[C@@H](OC)C(=O)[C@H](C)C[C@H](C)/C=C/C=C/C=C/1C [everolimus]
- endoderm conversion (SOX17, FoxA2, CXCR4 flow cytometry) [1, 8]: higher degree of endoderm conversion
- endoderm conversion (SOX17 AlphaLISA) [2, 8]: better endoderm conversion than cells cultured in Activin A alone or cells cultured with an Akt inhibitor
- PI3K alpha_MTOR score: PI3K alpha (PI3K alpha): PI3K alpha+_MTOR+
- PI3K alpha_MTOR score: MTOR (mTOR): PI3K alpha+_MTOR+
- Avg(Avg (Ph MTOR_60m_%C # Spots)) (phosphorylated mTOR; 1 h): 36.46 %C

B1: Activin A: human Activin A (Peprotech), member of the TGF beta family (protein, UniProt P08476 311-426, looked up)
Inhibin beta A chain: GLECDGKVNICCKKQFFVSFKDIGWNDWIIAPSGYHANYCEGECPSHIAGTSGSSLSFHSTVINHYRMRGHSPFANLKSCCVPTKLRPMSMLYYDDGQNIIKKDIQNMIVEECGCS
modifications: Inhibin beta A chain homodimer
- % of hESC-derived cells expressing SOX17 ([1]; Activin A alone, 3-day treatment): 20%
- % of endoderm-derived cells expressing AFP [5]: 7.65%
